In the supplement of paper PMC10307832:

Key:
Assay in all cases: relative viability (nuclei count vs DMSO), 5 days (fraction); higher = more cells survive
QS11 + Palbociclib = compound: C1CC2=C(C1)C=C(C=C2)OC3=NC(=C4C(=N3)N(C=N4)CC5=CC=C(C=C5)C6=CC=CC=C6)N[C@@H](CC7=CC=CC=C7)CO [QS11] + CC(=O)c1c(C)c2cnc(Nc3ccc(N4CCNCC4)cn3)nc2n(C2CCCC2)c1=O [Palbociclib] (partner 0.5 µM)
Outline: (§1)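 Lung cancer cell lines were seeded in 1536-well plates and dosed by pin tool the next day, with either a single drug or a fixed anchor-drug dose combined with five library-drug doses (not always all listed) spaced in √10 steps. Five days later, one step fixed the cells and stained their nuclei (final 0.05% Triton X-100, 1% formaldehyde, 1 ug/ml Hoechst), and nuclei were counted on 4× images. Relative viability is the nuclei count in treated wells divided by the count in vehicle wells, and each value is the median of duplicate plates.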

[1] = compound: C[As](C)SC[C@H](NC(=O)CC[C@H](N)C(=O)O)C(=O)NCC(=O)O [Darinaparsin] + CCNC(=O)c1noc(-c2cc(C(C)C)c(O)cc2O)c1-c1ccc(CN2CCOCC2)cc1 [Luminespib] (partner 0.01 µM)
Outline: as §1

AZ628 + Trametinib = compound: CC1=C(C=C(C=C1)NC(=O)C2=CC(=CC=C2)C(C)(C)C#N)NC3=CC4=C(C=C3)N=CN(C4=O)C [AZ628] + CC(=O)Nc1cccc(-n2c(=O)n(C3CC3)c(=O)c3c(Nc4ccc(I)cc4F)n(C)c(=O)c(C)c32)c1 [Trametinib] (partner 0.02 µM)
Outline: as §1

AZ628 + Alpelisib = compound: CC1=C(C=C(C=C1)NC(=O)C2=CC(=CC=C2)C(C)(C)C#N)NC3=CC4=C(C=C3)N=CN(C4=O)C [AZ628] + Cc1nc(NC(=O)N2CCC[C@H]2C(N)=O)sc1-c1ccnc(C(C)(C)C(F)(F)F)c1 [Alpelisib] (partner 2 µM)
Outline: as §1

Cell Line	relative viability (QS11 + Palbociclib; first compound 0.08 µM)	relative viability (QS11 + Palbociclib; first compound 0.253 µM)	relative viability (QS11 + Palbociclib; first compound 0.8 µM)	relative viability (QS11 + Palbociclib; first compound 2.53 µM)	relative viability (QS11 + Palbociclib; first compound 8 µM)	relative viability ([1]; first compound 0.08 µM)	relative viability ([1]; first compound 0.8 µM)	relative viability ([1]; first compound 2.53 µM)	relative viability ([1]; first compound 8 µM)	relative viability (AZ628 + Trametinib; first compound 0.08 µM)	relative viability (AZ628 + Trametinib; first compound 0.253 µM)	relative viability (AZ628 + Trametinib; first compound 0.8 µM)	relative viability (AZ628 + Trametinib; first compound 2.53 µM)	relative viability (AZ628 + Trametinib; first compound 8 µM)	relative viability (AZ628 + Alpelisib; first compound 0.08 µM)	relative viability (AZ628 + Alpelisib; first compound 0.253 µM)	relative viability (AZ628 + Alpelisib; first compound 0.8 µM)	relative viability (AZ628 + Alpelisib; first compound 2.53 µM)	relative viability (AZ628 + Alpelisib; first compound 8 µM)
NCI-H1437	0.299	0.351	0.239	0.287	0.239	1.32	1.21	1.08	1.36	0.494	0.549	0.471	0.557	0.566	0.958	0.976	1.02	1.01	0.988
NCI-H460	0.426	0.093	0.0461	0.0817	0.0731	0.0325	0.033	0.0441	0.0347	0.161	0.0829	0.0419	0.0397	0.0115	0.459	0.335	0.325	0.271	0.13
HARA	0.256	0.212	0.186	0.252	0.259	1.19	0.684	0.659	0.773	0.209	0.168	0.15	0.172	0.356	0.68	0.763	0.907	0.726	0.391
NCI-H2085	0.474	0.509	0.402	0.433	0.475	0.45	0.383	0.545	0.398	0.502	0.479	0.628	0.601	0.481	1.06	0.965	1.03	0.856	0.714
NCI-H1395	0.596	0.654	0.628	0.664	0.666	0.681	0.708	0.553	0.593	0.954	0.739	0.794	0.732	0.776	1.19	1.2	1.03	0.991	0.915
RERF-LC-KJ	1.08	0.999	0.724	0.895	0.874	1.97	1.21	1.11	1.15	0.762	0.719	0.824	0.835	0.736	0.721	0.912	0.749	0.719	0.597
NCI-H2087	0.249	0.27	0.247	0.2	0.197	0.159	0.162	0.204	0.184	0.18	0.191	0.161	0.152	0.184	0.783	0.73	0.62	0.678	0.231
SK-LU-1	0.345	0.419	0.336	0.365	0.376	0.203	0.182	0.214	0.169	0.325	0.323	0.257	0.248	0.248	0.733	1.12	0.802	0.934	0.512
EMC-BAC-2	0.515	0.545	0.43	0.443	0.406	0.763	1.15	1.16	1.49	0.588	0.442	0.416	0.365	0.43	0.704	0.645	0.681	0.608	0.706
A-427	0.553	0.582	–	0.551	0.574	1.24	0.967	0.803	1.4	0.462	0.407	0.353	0.395	0.407	1.02	1.06	0.624	0.635	0.222
NCI-H727	0.694	0.73	0.698	0.637	0.699	0.175	0.314	0.285	0.343	0.338	–	–	0.385	0.357	0.499	0.308	0.301	0.318	0.23
NCI-H2170	0.391	0.472	0.291	0.365	0.371	0.82	0.381	0.727	1.1	0.872	0.897	0.799	0.807	0.583	0.931	0.751	0.809	0.852	0.98
COR-L23	0.319	0.298	0.274	0.196	0.181	1.12	0.64	0.661	0.64	0.292	0.237	0.271	0.211	0.271	0.864	0.732	0.762	0.808	0.334
PC-3 [JPC-3]	–	0.586	0.396	0.595	0.575	0.807	0.721	0.698	0.87	0.685	0.579	0.647	0.574	0.386	1.01	1.08	1.06	1.11	0.97
NCI-H520	0.211	0.208	0.268	0.208	0.204	0.219	0.21	0.222	0.192	0.469	0.459	0.273	0.23	0.16	0.908	0.826	0.733	0.819	0.52
HCC-827	0.527	0.501	0.445	0.599	0.479	0.812	0.704	0.59	0.936	0.352	0.348	0.3	0.342	0.316	0.903	0.9	0.889	0.984	0.555
NCI-H1666	0.641	0.651	0.586	0.621	0.516	1.05	0.897	1.24	1.07	0.758	0.697	0.841	0.6	0.777	0.79	0.765	0.522	0.534	0.425
